The values below come from ChEMBL document CHEMBL3886179, “Substituted 6, 7-dialkoxy-3-isoquinoline derivatives as inhibitors of phosphodiesterase 10 (PDE 10A)” (2015).

pIC50: −log10 of the molar value.

The target of this experiment is cAMP and cAMP-inhibited cGMP 3',5'-cyclic phosphodiesterase 10A (Homo sapiens, UniProt Q9Y233). As to the kind of experiment: Diaxonhit Phosphodiesterase Assay: The phosphodiesterase assay was developed using the LANCE cAMP kit (PerkinElmer). The assay buffer contained HBSS with 5 mM HEPES, 0.1% BSA, and 1.5 mM MgCl2, pH 7.4. PDE10A (BPS Bioscience) was used at 200 pg/well (with a specific activity of 3200 pmole/min/ug with assay conditions: 10 mM Tris-HCl, pH 7.4, 10 mM MgCl2, 1 mM MnCl2, 200 uM cAMP, 2.5 kU 5' nucleotidase, 37° C., 20 min) and PDE4D3 (BPS Bioscience) was used at 100 pg/well (with a specific activity of 32713 pmole/min/ug with assay conditions: 10 mM Tris-HCl, pH 7.4, 10 mM MgCl2, 1 mM MnCl2, 200 uM cAMP, 2.5 kU 5' nucleotidase, 37° C., 20 min). The Biotin-cAMP tracer, supplied in 10 mmol/L Tris-HCl buffered (pH 8.0) salt solution with 1 mmol/L ethylenediaminetetraacetic acid (EDTA), 0.1% bovine serum albumin (BSA), and 0.05% sodium azide, is used at a dilution of 1/375. The assay detection mixture contained the LANCE Eu-W8044 labeled streptavidin 1/2250 (supplied in 50 mmol/L Tris-HCl buffer). On the technique in general: Time-resolved FRET reads energy transfer from a long-lived donor to a nearby acceptor.
cAMP and cAMP-inhibited cGMP 3',5'-cyclic phosphodiesterase 10A, sequence (Q9Y233 whole entry): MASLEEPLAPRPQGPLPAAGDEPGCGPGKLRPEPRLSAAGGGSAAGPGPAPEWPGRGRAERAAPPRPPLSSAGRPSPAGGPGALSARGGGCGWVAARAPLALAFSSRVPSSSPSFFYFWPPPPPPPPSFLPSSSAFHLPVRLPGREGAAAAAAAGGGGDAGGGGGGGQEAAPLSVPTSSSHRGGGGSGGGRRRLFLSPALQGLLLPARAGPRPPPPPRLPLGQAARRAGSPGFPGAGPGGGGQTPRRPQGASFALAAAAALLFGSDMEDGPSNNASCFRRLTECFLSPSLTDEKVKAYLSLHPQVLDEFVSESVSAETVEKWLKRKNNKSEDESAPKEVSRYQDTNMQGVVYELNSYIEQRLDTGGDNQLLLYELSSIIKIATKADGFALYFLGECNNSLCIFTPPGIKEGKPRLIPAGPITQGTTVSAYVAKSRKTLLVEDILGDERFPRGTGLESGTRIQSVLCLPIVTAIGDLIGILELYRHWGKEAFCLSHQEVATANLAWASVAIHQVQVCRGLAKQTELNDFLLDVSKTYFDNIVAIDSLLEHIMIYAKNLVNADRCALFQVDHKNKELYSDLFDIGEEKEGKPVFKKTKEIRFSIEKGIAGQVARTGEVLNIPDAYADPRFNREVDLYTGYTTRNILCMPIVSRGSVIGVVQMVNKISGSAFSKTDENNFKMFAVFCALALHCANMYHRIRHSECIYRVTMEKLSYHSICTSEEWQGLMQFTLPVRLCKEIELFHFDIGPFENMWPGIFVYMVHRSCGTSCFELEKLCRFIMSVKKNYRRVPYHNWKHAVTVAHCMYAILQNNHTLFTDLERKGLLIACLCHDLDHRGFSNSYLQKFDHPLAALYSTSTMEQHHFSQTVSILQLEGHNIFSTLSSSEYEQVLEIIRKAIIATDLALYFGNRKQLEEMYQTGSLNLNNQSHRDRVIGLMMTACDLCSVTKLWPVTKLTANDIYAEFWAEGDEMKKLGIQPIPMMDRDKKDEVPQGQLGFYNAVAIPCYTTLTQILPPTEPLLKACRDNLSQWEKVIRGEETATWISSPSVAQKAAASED
The term pIC50 denotes the negative decadic logarithm of the IC50, by convention in mol/L. Regarding `COc1cc2cncc(Cc3cnc4ccc(O)cc4c3)c2cc1OC`, the negative-log IC50 (pIC50) was 8.54.

For `COCc1ncc(Cc2ccc3cccc(N)c3n2)c2cc(OC)c(OC)cc12`, the negative logarithm of the IC50 (pIC50) was 8.07.

Regarding `COCc1ncc(Cc2cnc3ccc(O)c(C(F)(F)F)c3c2)c2cc(OC)c(OC)cc12`, the pIC50 is 8.35.

With `COc1cc2cncc(Cc3ccc4nc(-c5ccc(CO)cc5)oc4c3)c2cc1OC`, the negative-log IC50 (pIC50) was 7.70.

On to `COc1cc2cncc(Cc3ccc4cccc(NS(N)(=O)=O)c4n3)c2cc1OC`, for which the pIC50 is 9.38.

On to `CCCc1ncc(Cc2cnc3ccc(O)cc3c2)c2cc(OC)c(OC)cc12`, for which the pIC50 was 8.03.

With `CCCc1ncc(Cc2ccc3c(C(F)(F)F)ccc(O)c3n2)c2cc(OC)c(OC)cc12`, the pIC50 is 6.31.

Turning to `CCCc1ncc(Cc2ccc3cccc(OCc4nnn[nH]4)c3n2)c2cc(OC)c(OC)cc12`, the pIC50 is 8.33.

For the molecule `COc1cc2cncc(Cc3cnc4ccc(OCC(N)=O)cc4c3)c2cc1OC`, the pIC50 is 8.60.

In the case of `CCCc1ncc(Cc2ccc3cccc(NC(=O)COC(C)=O)c3n2)c2cc(OC)c(OC)cc12`, the negative-log IC50 (pIC50) was 6.69.

For the molecule `CCCc1ncc(Cc2ccc3cccc(OCC(=O)NC)c3n2)c2cc(OC)c(OC)cc12`, the pIC50 was 7.29.

Turning to `CCCc1ncc(Cc2ccc3cccc(NC(=O)CO)c3n2)c2cc(OC)c(OC)cc12`, the negative logarithm of the IC50 (pIC50) was 7.82.

Take `COc1cc2c(Cc3ccc4cccc(O)c4n3)cnc(C)c2cc1OC`: the negative logarithm of the IC50 (pIC50) is 7.38.

As to `CCCc1ncc(Cc2ccc3cccc(OCCNC(C)=O)c3n2)c2cc(OC)c(OC)cc12`, the negative logarithm of the IC50 (pIC50) is 7.24.

`COc1cc2cncc(Cc3ccc4oc(-c5ccc(N)cc5)nc4c3)c2cc1OC`: the pIC50 is 7.31.

For `CCc1ncc(Cc2ccc3cccc(OCCO)c3n2)c2cc(OC)c(OC)cc12`, the negative logarithm of the IC50 (pIC50) was 6.72.

With `CCc1ncc(Cc2ccc3cccc(OC(C)=O)c3n2)c2cc(OC)c(OC)cc12`, the pIC50 was 5.51.

Consider `CCc1ncc(Cc2ccc3cccc(OCc4nnn[nH]4)c3n2)c2cc(OC)c(OC)cc12`, for which the negative logarithm of the IC50 (pIC50) is 7.51.

As to `COc1cc2c(Cc3ccc4cccc(O)c4n3)cnc(C3CC3)c2cc1OC`, the negative-log IC50 (pIC50) was 6.82.

For the molecule `COCc1ncc(Cc2ccc3cccc(OCCO)c3n2)c2cc(OC)c(OC)cc12`, the pIC50 was 7.55.

Consider `CCCc1ncc(Cc2ccc3c(C(F)(F)F)ccc(OCC(N)=O)c3n2)c2cc(OC)c(OC)cc12`, for which the negative logarithm of the IC50 (pIC50) was 6.99.

On to `COCc1ncc(Cc2ccc3cccc(O)c3n2)c2cc(OC)c(OC)cc12`, for which the pIC50 was 7.72.

For `COc1cc2cncc(Cc3ccc4oc(-c5ccc(CO)cc5)nc4c3)c2cc1OC`, the pIC50 was 7.72.

On to `COc1cc2c(Cc3ccc4cccc(OCC(N)=O)c4n3)cnc(C)c2cc1OC`, for which the negative-log IC50 (pIC50) was 7.19.

For the molecule `COc1cc2c(Cc3ccc4cccc(NS(N)(=O)=O)c4n3)cnc(C)c2cc1OC`, the pIC50 is 9.15.

With `CCc1ncc(Cc2ccc3cccc(OCCC(=O)O)c3n2)c2cc(OC)c(OC)cc12`, the pIC50 is 8.30.

Take `COc1cc2cncc(Cc3ccc4oc(-c5cccc(CO)c5)nc4c3)c2cc1OC`: the pIC50 is 7.55.

Consider `COc1cc2cncc(Cc3ccc4oc(-c5ccccc5CO)nc4c3)c2cc1OC`, for which the negative logarithm of the IC50 (pIC50) is 7.02.

On to `COc1cc2cncc(Cc3cnc4ccc(OCC(=O)O)cc4c3)c2cc1OC`, for which the pIC50 is 8.10.

`COc1cc2c(Cc3ccc4cccc(OCC(N)=O)c4n3)cnc(C3CC3)c2cc1OC`: the pIC50 was 7.17.

As to `COc1cc2cncc(Cc3ccc4cccc(N)c4n3)c2cc1OC`, the pIC50 was 7.89.

Turning to `CCOC(=O)COc1cccc2ccc(Cc3cnc(COC)c4cc(OC)c(OC)cc34)nc12`, the negative logarithm of the IC50 (pIC50) was 7.15.

On to `CCCc1ncc(Cc2ccc3cccc(OC(C)=O)c3n2)c2cc(OC)c(OC)cc12`, for which the pIC50 is 6.96.

Consider `COc1cc2cncc(Cc3ccc4oc(-c5ccc(C#N)cc5)nc4c3)c2cc1OC`, for which the pIC50 was 6.83.

In the case of `COc1cc2c(Cc3cnc4ccc(O)cc4c3)cnc(C)c2cc1OC`, the negative logarithm of the IC50 (pIC50) was 7.74.

With `COCc1ncc(Cc2cnc3ccc(O)cc3c2)c2cc(OC)c(OC)cc12`, the pIC50 was 8.25.

On to `CCCc1ncc(Cc2cnc3ccc(O)c(C(F)(F)F)c3c2)c2cc(OC)c(OC)cc12`, for which the negative-log IC50 (pIC50) is 7.89.

Take `COCc1ncc(Cc2ccc3cccc(OCC(N)=O)c3n2)c2cc(OC)c(OC)cc12`: the pIC50 is 7.68.

With `COc1cc2cnc(C)c(Cc3ccc4cccc(O)c4n3)c2cc1OC`, the negative logarithm of the IC50 (pIC50) is 7.39.

As for `CCCc1ncc(Cc2ccc3oc(=O)[nH]c3c2)c2cc(OC)c(OC)cc12`, the pIC50 is 7.19.
